# Patent US4584382A, “Pyridyl acrylate compound” (priority 1984, dated 1986)
# Columns and labels:
# H1 histamine receptor = biological target: T1, H1 histamine receptor (Cavia porcellus, UniProt P31389); test: Antihistaminic activity: antagonism of histamine concentration-response curves in isolated guinea-pig ileum longitudinal muscle (Schild plot); format: cell-based; conditions: negative log of the antagonist concentration shifting the histamine control curve 2X to the right; one hour incubation; read-out: pA2 (converted)
# T1 construct: The longitudinal muscle was isolated from the intact ileum of guinea-pigs; from tissue; host or cells: guinea-pig (Hartley, male) ileum longitudinal muscle
# Description: The longitudinal muscle was isolated from the intact ileum of guinea-pigs (Hartley, male 250-400 g) and placed in an organ bath under 300 mg tension. After one hour of equilibration, cumulative concentration-response curves (Van Rossum, J. M., Arch. Int. Pharmacodyn. Ther. 143, 299-330, 1963) to histamine were obtained. Following washing, the tissues were incubated for one hour with the test compound and then a second histamine concentration-response curve was run. Shifts to the right of the agonist concentration-response curve produced by the antagonists were used to construct Schild plots (Arunlakshana, O. and Schild, H. O., Br. J. Pharmacol: 14, 48-58, 1959). Regression of Log (dr-1) on Log [B], where dr is an equiactive response in the presence and absence of antagonist and [B] is the molar concentration of antagonist, allowed an estimate of pA2, i.e. the negative log of the concentration of antagonist which shifts the control histamine concentration-response curve 2X to the right.
# [1] = Pharmacokinetic studies comparing relative distribution in brain and plasma; format: in vivo; conditions: rodents
# [2] = system: H1 histamine receptor sites; test: Binding to H1 histamine receptor sites (statement); set-up: species or system mammals including humans
# [3] = Sedative effects (statement); format: in vivo; conditions: in contrast to the antihistamines in present use
# [4] = Anticholinergic activity / side effects (statement); conditions: in contrast to the antihistamines in present use
# [5] = antihistamines now in use; cited from earlier work
# [6] = clinical use; cited from earlier work
# [7] = human, in vivo; cited from earlier work
# T1 sequence (P31389 whole entry): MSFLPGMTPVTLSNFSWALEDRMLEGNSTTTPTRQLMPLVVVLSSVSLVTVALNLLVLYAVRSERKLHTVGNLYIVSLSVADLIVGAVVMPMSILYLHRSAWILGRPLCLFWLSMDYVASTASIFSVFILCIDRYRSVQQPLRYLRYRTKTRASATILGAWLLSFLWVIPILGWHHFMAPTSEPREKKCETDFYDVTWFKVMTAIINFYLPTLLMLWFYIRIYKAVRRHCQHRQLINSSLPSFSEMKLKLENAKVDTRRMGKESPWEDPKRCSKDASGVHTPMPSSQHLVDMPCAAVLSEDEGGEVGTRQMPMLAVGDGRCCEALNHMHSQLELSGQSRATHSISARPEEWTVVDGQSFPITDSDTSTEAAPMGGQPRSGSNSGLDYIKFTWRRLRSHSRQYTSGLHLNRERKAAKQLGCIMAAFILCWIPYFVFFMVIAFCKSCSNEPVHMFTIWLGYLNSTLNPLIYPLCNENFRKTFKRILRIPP
smiles,measurement,setting,value
"O=C(O)/C=C/c1cccc(/C(=C/CN2CCCC2)c2ccc(C(F)(F)F)cc2)n1 [Compound of Formula (I), (E)-3-{6-[3-Pyrrolidino-1(4-Trifluoromethylphenyl)prop-1E-enyl]-2-pyridyl}acrylic acid]",Kb,H1 histamine receptor,0.0398 nM
same,brain penetration,[1],does not readily penetrate the brains of rodents
same,binding to H1 histamine receptor sites,[2],binds competitively to the H1 histamine receptor sites
same,sedating effect,[3],essentially not sedating
same,anticholinergic side effects,[4],little or no anticholinergic side effects
"Cc1ccc(/C(=C\CN2CCCC2)c2ccccn2)cc1 [Triprolidine, (E)-1-(4-methylphenyl)-1-(2-pyridyl)-3-pyrrolidinoprop-1-ene]",Kb,H1 histamine receptor,0.0794 nM
same,anticholinergic activity,[5],varying degrees of anticholinergic activity
same,antihistamine potency,[6],one of the most potent antihistamines available
same,sedation and drowsiness,[7],produces sedation and drowsiness in varying degrees in most patients
CC(CN1c2ccccc2Sc2ccccc21)N(C)C (centres unmarked) [promethazine],anticholinergic activity,[5],varying degrees of anticholinergic activity
COc1ccc(CN(CCN(C)C)c2ccccn2)cc1 [pyrilamine],anticholinergic activity,[5],varying degrees of anticholinergic activity
